Laboratory results published in paper PMC11078956, “Structural investigation of interactions between halogenated flavonoids and the lipid membrane along with their role as cytotoxic agents” (Scientific Reports, 2024).

Tests used:
[1] = test system: breast cancer cells MCF-7; set-up: method as in PMID 32364671; conditions: cited from earlier work
RDSVS-TCC1 cells = test: MTT cytotoxicity, RDSVS-TCC1; type: cell-based, canine; conditions: Canis lupus familiaris, 72 h, mean ± SD, read-out: IC50 values after 72 h
Source text: (§1) The study involved four canine cancer cell lines: RDSVS-TCC1 and K9NK (bladder cancer), CLBL-1 (B-cell lymphoma), GL-1 (B/T-cell leukemia) and noncancerous cell line CF2TH (fetal canine thymus). CLBL-1 was obtained from Barbara C.Ruetgen from the Institute of Immunology, Department of Pathobiology, University of Veterinary Medicine, Vienna[48]. GL-1 from Yasuhito Fujino and Hajime Tsujimoto of the University of Tokyo, Department of Veterinary Internal Medicine[49]. The CF2TH cell line was purchased from American Type Culture Collection (ATCC, Rockville, MD, USA).
(§2) The cell lines were maintained in RPMI- 1640 (CLBL-1, GL-1 and CF2TH) (Gibco, Grand Island, NY, USA) or DMEM (Institute of Immunology and Experimental Therapy, Polish Academy of Sciences, Wrocław, Poland) (RDSVS-TCC1, K9NK) culture medium supplemented with 10% fetal bovine serum FBS (Gibco, Grand Island, NY, USA), 100 units/mL penicillin and […] streptomycin and 1% of L-glutamine (Sigma Aldrich, Steinheim, Germany).
(§3) The cytotoxicity assay was determined by MTT test after 72 h of treatment, according to the procedure described previously[50] with minor modifications.
(§4) In summary, the cells plated at the density of 3*10^4 (k9NK, RDSVS-TCC1), 2*10^5 (CLBL-1, GL-1) and 7.5*10^3 (CF2TH) per mililiter were seeded in 96-well plates (NUNC, Denmark).
(§5) The concentration of tested flavonoids was in the range 1.25–50 µM and DMSO concentration was < 1% in each dilution which is considered harmless to the cells). After incubation for 72 h, 10 µl of 3-(4,5-dimethylthiazol-2-yl)-2,5-diphenyltetrazolium bromide (MTT) solution was added to each well followed by 4 h incubation, then 40 μL of lysis buffer were added. The optical density (OD) of formazan formed from MTT was measured after 24 h using a spectrophotometric microplate reader (Spark, Tecan, Männedorf, Switzerland) at […] 570 nm.
(§6) The results were: determined from more than three independent experiments (three wells each) and presented as mean IC50 value ± SD.

K9NK cells = test: MTT cytotoxicity, K9NK; type: cell-based, canine; conditions: Canis lupus familiaris, 72 h, mean ± SD, read-out: IC50 values after 72 h
Source text: as §1, §2, §3, §4, §5, §6

GL-1 cells = test: MTT cytotoxicity, GL-1; type: cell-based, canine; conditions: Canis lupus familiaris; GL-1, MTT, 72 h, mean ± SD; read-out: IC50 values after 72 h
Source text: as §1, §2, §3, §4, §5, §6

CLBL-1 cells = test: MTT cytotoxicity, CLBL-1; type: cell-based, canine; conditions: Canis lupus familiaris; CLBL-1, MTT, 72 h, mean ± SD; read-out: IC50 values after 72 h
Source text: as §1, §2, §3, §4, §5, §6

CF2TH cells = test: MTT cytotoxicity, CF2TH normal cell line; type: cell-based, canine; conditions: Canis lupus familiaris, 72 h, mean ± SD, read-out: IC50 values after 72 h
Source text: as §1, §2, §3, §4, §5, §6

[2] = test system: RDSVS-TCC1, GL-1, CLBL-1, CF2TH cells; test: MTT cytotoxicity, all lines tested except K9NK; type: cell-based, canine; conditions: Canis lupus familiaris, 72 h
Source text: as §1, §2, §3, §4, §5, §6

[3] = Hemolysis of red blood cells; type: cell-based; conditions: human, human red blood cells (erythrocytes), read-out: degree of haemolysis
Procedure: The cytotoxicity level of the compounds was assessed through a haemolytic activity test, measuring the impact of six compounds at concentrations of […] on human red blood cells (RBCs). According to toxicity categorization, compounds are considered highly toxic if they cause a haemolysis rate of 90–100% and are considered non-toxic if the haemolysis rate falls within the range of 0–9%[28].
Hemolysis, a method to assess the release of hemoglobin from red blood cells (RBCs), was comprehensively explained in our prior research.
For erythrocytes with a hematocrit level of 12%, the compounds were introduced at concentrations of 10, 20, 40 and 60 μM. The prepared samples were kept at 37 °C for 1 and 24 h.
After the incubation period, the samples underwent centrifugation, and the hemoglobin concentration in the supernatants was quantified using a UV–VIS spectrophotometer (Specord 40, AnalytikJena) at a wavelength of 540 nm. The percentage of RBCs hemolysis were determined by comparing the absorbance of hemoglobin in the tested samples to the absorbance of hemoglobin in completely hemolyzed cells (100%). Samples achieving total hemolysis (100%) were generated by adding distilled water.

Row | SMILES | IC50 [1] [µM] | IC50 (RDSVS-TCC1 cells) [µM] | IC50 (K9NK cells) [µM] | IC50 (GL-1 cells) [µM] | IC50 (CLBL-1 cells) [µM] | IC50 (CF2TH cells) [µM] | IC50 [2] [µM] | melting point [°C] | hemolysis at 24 h, 40 µM ([3]; 40 μM) [%] | hemolysis at 24 h, 50 µM ([3]; 50 μM) [%] | hemolysis at 24 h, 30 µM ([3]; 30 μM) [%]
1 | O=c1cc(-c2ccccc2)oc2c(Br)c(O)c(O)c(O)c12 [8-bromobaicalei] | 10 ± 3 | – | – | – | – | – | – | – | – | – | –
2 | O=c1cc(-c2ccccc2Cl)oc2ccccc12 [D1, 2′-chloroflavone] | – | 32.6 ± 8.04 | 59.9 ± 14.7 | 26.5 ± 3.05 | 26.6 ± 3.61 | 28.2 ± 6.6 | ~30 | 109 to 110 | – | – | –
3 | O=c1cc(-c2cccc(Cl)c2)oc2ccccc12 [D2, 3′-chloroflavone] | – | 31.6 ± 5.97 | 31.2 ± 6.87 | 26.5 ± 4.57 | 26.3 ± 6.33 | 22.9 ± 6.88 | ~30 | – | 16 ± 1.78 | 22.7 ± 1.98 | –
4 | O=c1cc(-c2ccc(Cl)cc2)oc2ccccc12 [D3, 4′-chloroflavone] | – | 28.2 ± 5.62 | 19.4 ± 6.75 | 35.1 ± 6.17 | 32.8 ± 2.11 | 28.4 ± 5.02 | ~30 | – | – | – | –
5 | O=c1cc(-c2ccccc2)oc2ccc(Cl)cc12 [D4, 6-chloroflavone] | – | 58.7 ± 13.3 | 35.6 ± 3.41 | 62.4 ± 2.89 | 74.4 ± 28.7 | 80.9 ± 14.1 | – | – | – | – | 10.8 ± 5.46
6 | O=c1cc(-c2ccccc2)oc2c(Cl)cc(Cl)cc12 [D5, 6,8-dichloroflavone] | – | 43 ± 11.3 | 30.5 ± 13.8 | 38.8 ± 6.48 | 76.4 ± 23.2 | 28.5 ± 18 | – | – | – | – | –
7 | O=c1cc(-c2ccccc2)oc2c(Br)cc(Cl)cc12 [D6, 8-bromo-6-chloroflavone] | – | 37.7 ± 14.4 | 29.1 ± 16.2 | 47.2 ± 1.41 | 38.1 ± 7.81 | 38.1 ± 7.87 | – | – | – | – | –
